In ChEMBL document CHEMBL4334532, “Cytotoxic p-Terphenyls from a Marine-Derived Nocardiopsis Species” (J Nat Prod, 2019):
pIC50: −log10 of the molar value. Calls of active or inactive are those of the source. The rule behind the calls is not given here.

Tests used:
L02 = experiment: Cytotoxicity against human LO2 cells assessed as inhibition of cell growth measured after 72 hrs by MTT assay; assay type: cell-based; details: L02, 72 h
A549 [1] = experiment: Cytotoxicity against human A549 cells assessed as inhibition of cell growth measured after 72 hrs by MTT assay; assay type: functional, cell-based; details: A549, 72 h
[2] = Cytotoxicity against human P6C cells assessed as inhibition of cell growth measured after 72 hrs by MTT assay; assay type: functional, cell-based
MCF7 [3] = experiment: Cytotoxicity against human MCF7 cells assessed as inhibition of cell growth measured after 72 hrs by MTT assay; assay type: functional, cell-based; details: MCF7, 72 h
K562 [4] = experiment: Cytotoxicity against human K562 cells assessed as inhibition of cell growth measured after 72 hrs by CCK-8 assay; assay type: functional, cell-based; details: K562, 72 h
MDA-MB-231 = experiment: Cytotoxicity against human MDA-MB-231 cells measured after 72 hrs by Celltiter-Glo assay; assay type: functional, cell-based; details: MDA-MB-231, 72 h
NCI-H1975 = experiment: Cytotoxicity against human NCI-H1975 cells harboring EGFR double L858R/T790M mutant measured after 72 hrs by Celltiter-Glo assay; assay type: functional, cell-based; details: NCI-H1975, 72 h
HCT-116 = experiment: Cytotoxicity against human HCT116 cells measured after 72 hrs by Celltiter-Glo assay; assay type: functional, cell-based; details: HCT-116, 72 h
MCF7 [5] = experiment: Cytotoxicity against human MCF7 cells measured after 72 hrs by Celltiter-Glo assay; assay type: functional, cell-based; details: MCF7, 72 h
K562 [6] = experiment: Cytotoxicity against human K562 cells measured after 72 hrs by Celltiter-Glo assay; assay type: functional, cell-based; details: K562, 72 h
A549 [7] = experiment: Cytotoxicity against human A549 cells measured after 72 hrs by Celltiter-Glo assay; assay type: functional, cell-based; details: A549, 72 h
HuCCT-1 = experiment: Cytotoxicity against human HuCCT1 cells measured after 72 hrs by Celltiter-Glo assay; assay type: functional, cell-based; details: HuCCT-1, 72 h
DU-145 = experiment: Cytotoxicity against human DU145 cells measured after 72 hrs by Celltiter-Glo assay; assay type: functional, cell-based; details: DU-145, 72 h
HCC1954 = experiment: Cytotoxicity against human HCC1954 cells measured after 72 hrs by Celltiter-Glo assay; assay type: functional, cell-based; details: HCC1954, 72 h
NCI-H1299 = experiment: Cytotoxicity against human H1299 cells measured after 72 hrs by Celltiter-Glo assay; assay type: functional, cell-based; details: NCI-H1299, 72 h
U-251 = experiment: Cytotoxicity against human U251 cells measured after 72 hrs by Celltiter-Glo assay; assay type: functional, cell-based; details: U-251, 72 h
KARPAS-299 = experiment: Cytotoxicity against human KARPAS299 cells measured after 72 hrs by Celltiter-Glo assay; assay type: functional, cell-based; details: KARPAS-299, 72 h
143B = experiment: Cytotoxicity against human 143B cells measured after 72 hrs by Celltiter-Glo assay; assay type: functional, cell-based
[8] = Cytotoxicity against human SPC-A1 cells overexpressing maspin protein measured after 72 hrs by Celltiter-Glo assay; assay type: functional, cell-based; details: SPCA1, 72 h
NCI-H2228 = experiment: Cytotoxicity against human NCI-H2228 cells measured after 72 hrs by Celltiter-Glo assay; assay type: functional, cell-based; details: NCI-H2228, 72 h
B16-F10 = experiment: Cytotoxicity against mouse B16/F10 cells measured after 72 hrs by Celltiter-Glo assay; assay type: functional, cell-based; details: B16-F10, 72 h
MDA-MB-468 = experiment: Cytotoxicity against human MDA-MB-468 cells measured after 72 hrs by Celltiter-Glo assay; assay type: functional, cell-based; details: MDA-MB-468, 72 h
MV4-11 = experiment: Cytotoxicity against human MV4-11 cells measured after 72 hrs by Celltiter-Glo assay; assay type: functional, cell-based; details: MV4-11, 72 h
A673 = experiment: Cytotoxicity against human A673 cells measured after 72 hrs by Celltiter-Glo assay; assay type: functional, cell-based; details: A673, 72 h
HL-60 = experiment: Cytotoxicity against human HL60 cells measured after 72 hrs by Celltiter-Glo assay; assay type: functional, cell-based; details: HL-60, 72 h
BT-474 = experiment: Cytotoxicity against human BT474 cells measured after 72 hrs by Celltiter-Glo assay; assay type: functional, cell-based; details: BT-474, 72 h
U-87 MG = experiment: Cytotoxicity against human U87 cells measured after 72 hrs by Celltiter-Glo assay; assay type: functional, cell-based, U-87MG ATCC
NCI-N87 = experiment: Cytotoxicity against human NCI-N87 cells measured after 72 hrs by Celltiter-Glo assay; assay type: functional, cell-based; details: NCI-N87, 72 h
Hep 3B2 = experiment: Cytotoxicity against human Hep3B cells measured after 72 hrs by Celltiter-Glo assay; assay type: functional, cell-based
A-431 = experiment: Cytotoxicity against human A431 cells measured after 72 hrs by Celltiter-Glo assay; assay type: functional, cell-based; details: A-431, 72 h
MKN-45 = experiment: Cytotoxicity against human MKN45 cells measured after 72 hrs by Celltiter-Glo assay; assay type: functional, cell-based; details: MKN-45, 72 h
HeLa = experiment: Cytotoxicity against human HeLa cells; assay type: functional, cell-based

Compound: COc1ccc(-c2c(OC)c(O)c(-c3ccc(OC)cc3)c3scnc23)cc1
- pIC50 (L02): 4.77
- pIC50 (A549 [1]): 5.29
- pIC50 [2]: 5.03
- pIC50 (MCF7 [3]): 5.22
- pIC50 (K562 [4]): 6.11

Compound: COc1ccc(-c2cc(O)c(-c3ccc(OC)cc3)c(OC)c2OC)cc1
- pIC50 (MDA-MB-231): 5.70
- pIC50 (NCI-H1975): 5.36
- pIC50 (HCT-116): < 4.00
- pIC50 (MCF7 [5]): 4.77
- pIC50 (K562 [6]): 5.05
- pIC50 (A549 [7]): 5.01
- pIC50 (HuCCT-1): < 4.00
- pIC50 (DU-145): 6.00
- pIC50 (HCC1954): 5.70
- pIC50 (NCI-H1299): < 4.00
- pIC50 (U-251): < 4.00
- pIC50 (KARPAS-299): < 4.00
- pIC50 (143B): 5.11
- pIC50 [8]: 5.01
- pIC50 (NCI-H2228): 5.30
- pIC50 (B16-F10): < 4.00
- pIC50 (MDA-MB-468): 6.17
- pIC50 (MV4-11): 6.11
- pIC50 (A673): 5.05
- pIC50 (HL-60): 5.30
- pIC50 (BT-474): < 4.00
- pIC50 (U-87 MG): < 4.00
- pIC50 (NCI-N87): < 4.00
- pIC50 (Hep 3B2): < 4.00
- pIC50 (A-431): < 4.00
- pIC50 (MKN-45): 4.92

Compound: COc1ccc(-c2c3c(c(-c4ccc(OC)cc4)c(O)c2OC)SCC(=O)N3)cc1
- pIC50 (MDA-MB-231): < 4.00
- pIC50 (NCI-H1975): < 4.00
- pIC50 (HCT-116): < 4.00
- pIC50 (MCF7 [5]): < 4.00
- pIC50 (K562 [6]): < 4.00
- pIC50 (A549 [7]): < 4.00
- pIC50 (HuCCT-1): < 4.00
- pIC50 (DU-145): < 4.00
- pIC50 (HCC1954): < 4.00
- pIC50 (NCI-H1299): < 4.00
- pIC50 (U-251): < 4.00
- pIC50 (KARPAS-299): < 4.00
- pIC50 (143B): < 4.00
- pIC50 [8]: < 4.00
- pIC50 (NCI-H2228): < 4.00
- pIC50 (B16-F10): < 4.00
- pIC50 (MDA-MB-468): < 4.00
- pIC50 (MV4-11): < 4.00
- pIC50 (A673): < 4.00
- pIC50 (HL-60): < 4.00
- pIC50 (BT-474): < 4.00
- pIC50 (U-87 MG): < 4.00
- pIC50 (NCI-N87): < 4.00
- pIC50 (Hep 3B2): < 4.00
- pIC50 (A-431): < 4.00
- pIC50 (MKN-45): < 4.00

Compound: COc1cccc2c1C(=O)c1c(O)c3c(c(O)c1C2=O)C[C@@](O)(C(=O)CO)C[C@@H]3O[C@H]1C[C@H](N)[C@H](O)[C@H](C)O1 [DOXORUBICIN]
- pIC50 (NCI-H1975): 7.06
- pIC50 (K562 [6]): 7.68
- pIC50 (A549 [7]): 6.96
- pIC50 (HuCCT-1): 7.32
- pIC50 (DU-145): 7.29
- pIC50 (HCC1954): 7.35
- pIC50 (NCI-H1299): 6.30
- pIC50 (L02): 6.15
- pIC50 (U-251): 6.77
- pIC50 (A549 [1]): 6.24
- pIC50 (KARPAS-299): 6.42
- pIC50 (143B): 7.00
- pIC50 [8]: 6.74
- pIC50 [2]: 6.15
- pIC50 (NCI-H2228): 7.01
- pIC50 (B16-F10): 7.80
- pIC50 (MDA-MB-468): < 4.00
- pIC50 (MV4-11): 6.80
- pIC50 (A673): 7.00
- pIC50 (K562 [4]): 6.48
- pIC50 (BT-474): 5.72
- pIC50 (U-87 MG): 6.96
- pIC50 (NCI-N87): 7.33
- pIC50 (Hep 3B2): 4.80
- pIC50 (A-431): 6.80
- pIC50 (MKN-45): 6.72

Compound: COc1ccc(-c2cc(O)c(-c3ccc(OC)cc3)c(OC)c2O)cc1
- pIC50 (L02): < 4.40
- pIC50 (A549 [1]): < 4.40
- pIC50 [2]: < 4.40
- pIC50 (MCF7 [3]): 4.52
- pIC50 (K562 [4]): < 4.40

Compound: COC1=C(c2ccc(OC)cc2)C(=O)C=C(c2ccc(OC)cc2)C1=O
- pIC50 (MDA-MB-231): 5.70
- pIC50 (NCI-H1975): 5.51
- pIC50 (HCT-116): 5.72
- pIC50 (MCF7 [5]): < 4.00
- pIC50 (K562 [6]): 5.32
- pIC50 (A549 [7]): 6.32
- pIC50 (HuCCT-1): 6.70
- pIC50 (DU-145): 6.28
- pIC50 (HCC1954): 6.32
- pIC50 (NCI-H1299): 6.14
- pIC50 (U-251): 5.33
- pIC50 (KARPAS-299): < 4.00
- pIC50 (143B): 5.30
- pIC50 [8]: 5.70
- pIC50 (NCI-H2228): 6.03
- pIC50 (B16-F10): 6.12
- pIC50 (MDA-MB-468): 5.96
- pIC50 (MV4-11): 6.80
- Activity (HeLa): Active
- pIC50 (A673): 6.12
- pIC50 (HL-60): 6.77
- pIC50 (BT-474): 5.44
- pIC50 (U-87 MG): < 4.00
- pIC50 (NCI-N87): 6.00
- pIC50 (Hep 3B2): < 4.00
- pIC50 (A-431): < 4.00
- pIC50 (MKN-45): 6.31

Compound: COc1ccc(-c2c(OC)c(O)c(-c3ccc(OC)cc3)c3sc(CO)nc23)cc1
- pIC50 (MDA-MB-231): < 4.00
- pIC50 (NCI-H1975): < 4.00
- pIC50 (HCT-116): < 4.00
- pIC50 (MCF7 [5]): 4.74
- pIC50 (K562 [6]): 5.05
- pIC50 (A549 [7]): 5.11
- pIC50 (HuCCT-1): < 4.00
- pIC50 (DU-145): < 4.00
- pIC50 (HCC1954): 7.00
- pIC50 (NCI-H1299): < 4.00
- pIC50 (U-251): < 4.00
- pIC50 (KARPAS-299): < 4.00
- pIC50 (143B): 5.26
- pIC50 [8]: < 4.00
- pIC50 (NCI-H2228): 5.77
- pIC50 (B16-F10): < 4.00
- pIC50 (MDA-MB-468): 5.55
- pIC50 (MV4-11): 5.40
- pIC50 (A673): < 4.00
- pIC50 (HL-60): 6.42
- pIC50 (BT-474): 5.22
- pIC50 (U-87 MG): < 4.00
- pIC50 (NCI-N87): < 4.00
- pIC50 (Hep 3B2): < 4.00
- pIC50 (A-431): 5.34
- pIC50 (MKN-45): < 4.00
